Laboratory results as given in ChEMBL document CHEMBL1811912, “Human HDAC isoform selectivity achieved via exploitation of the acetate release channel with structurally unique small molecule inhibitors” (Bioorg Med Chem, 2011).

Experiments:
Histone deacetylase 1 = Histone deacetylase 1 (Homo sapiens, UniProt Q13547); assay: Inhibition of human HDAC1 using rhodamine as substrate after 1 hrs by fluorescence assay
[1] = target: T1, Protein deacetylase HDAC6 (Homo sapiens, UniProt Q9UBN7); assay: Inhibition of human HDAC6 using rhodamine as substrate after 1 hrs by fluorescence assay
T1 sequence (Q9UBN7 whole entry): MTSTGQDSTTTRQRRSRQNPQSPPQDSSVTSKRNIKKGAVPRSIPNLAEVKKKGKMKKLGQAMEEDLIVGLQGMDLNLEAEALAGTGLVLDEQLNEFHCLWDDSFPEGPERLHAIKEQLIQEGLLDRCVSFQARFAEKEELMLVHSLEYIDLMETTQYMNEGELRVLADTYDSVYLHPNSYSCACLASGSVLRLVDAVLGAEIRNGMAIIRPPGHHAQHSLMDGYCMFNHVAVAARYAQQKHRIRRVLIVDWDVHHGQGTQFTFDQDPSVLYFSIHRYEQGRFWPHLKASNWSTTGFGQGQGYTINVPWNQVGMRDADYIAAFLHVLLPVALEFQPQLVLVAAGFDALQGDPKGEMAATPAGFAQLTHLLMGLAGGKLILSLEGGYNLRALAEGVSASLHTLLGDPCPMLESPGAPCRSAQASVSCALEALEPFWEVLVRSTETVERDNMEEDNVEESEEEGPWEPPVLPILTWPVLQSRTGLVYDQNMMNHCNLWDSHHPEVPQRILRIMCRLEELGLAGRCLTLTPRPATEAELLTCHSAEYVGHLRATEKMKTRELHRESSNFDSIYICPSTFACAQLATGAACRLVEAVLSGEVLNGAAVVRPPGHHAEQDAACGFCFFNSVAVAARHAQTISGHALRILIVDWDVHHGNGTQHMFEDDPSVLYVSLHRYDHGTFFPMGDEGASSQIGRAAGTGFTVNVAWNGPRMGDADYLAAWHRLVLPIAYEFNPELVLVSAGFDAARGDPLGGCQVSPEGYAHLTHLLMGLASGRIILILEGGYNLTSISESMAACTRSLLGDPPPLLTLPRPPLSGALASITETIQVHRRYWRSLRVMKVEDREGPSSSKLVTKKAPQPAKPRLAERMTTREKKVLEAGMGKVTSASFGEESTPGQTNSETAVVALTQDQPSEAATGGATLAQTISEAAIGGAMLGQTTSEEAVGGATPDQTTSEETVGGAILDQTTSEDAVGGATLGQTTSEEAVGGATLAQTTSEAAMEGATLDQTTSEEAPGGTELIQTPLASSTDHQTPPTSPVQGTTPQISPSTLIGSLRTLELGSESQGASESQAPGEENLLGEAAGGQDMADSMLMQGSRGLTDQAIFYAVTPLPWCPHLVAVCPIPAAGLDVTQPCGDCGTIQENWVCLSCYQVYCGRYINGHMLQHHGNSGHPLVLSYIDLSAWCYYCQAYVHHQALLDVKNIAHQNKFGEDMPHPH

Histone deacetylase 2 = Histone deacetylase 2 (Homo sapiens, UniProt Q92769); assay: Inhibition of human HDAC2 using rhodamine as substrate after 1 hrs by fluorescence assay
Sequence of Histone deacetylase 2 (Q92769 whole entry): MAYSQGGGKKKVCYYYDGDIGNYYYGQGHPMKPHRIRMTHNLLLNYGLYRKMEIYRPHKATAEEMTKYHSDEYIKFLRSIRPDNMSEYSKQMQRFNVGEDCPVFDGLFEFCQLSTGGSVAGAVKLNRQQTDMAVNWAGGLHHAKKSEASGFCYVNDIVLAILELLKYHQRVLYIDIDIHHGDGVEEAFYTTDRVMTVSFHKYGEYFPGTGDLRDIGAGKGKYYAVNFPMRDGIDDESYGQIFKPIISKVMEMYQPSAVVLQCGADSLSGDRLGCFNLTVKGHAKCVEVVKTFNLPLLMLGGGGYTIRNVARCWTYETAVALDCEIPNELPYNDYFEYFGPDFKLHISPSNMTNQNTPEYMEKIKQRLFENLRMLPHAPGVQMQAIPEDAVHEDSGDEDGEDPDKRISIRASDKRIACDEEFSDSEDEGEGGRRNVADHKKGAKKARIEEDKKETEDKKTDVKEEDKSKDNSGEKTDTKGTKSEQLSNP

Sequence of Histone deacetylase 1 (Q13547 whole entry): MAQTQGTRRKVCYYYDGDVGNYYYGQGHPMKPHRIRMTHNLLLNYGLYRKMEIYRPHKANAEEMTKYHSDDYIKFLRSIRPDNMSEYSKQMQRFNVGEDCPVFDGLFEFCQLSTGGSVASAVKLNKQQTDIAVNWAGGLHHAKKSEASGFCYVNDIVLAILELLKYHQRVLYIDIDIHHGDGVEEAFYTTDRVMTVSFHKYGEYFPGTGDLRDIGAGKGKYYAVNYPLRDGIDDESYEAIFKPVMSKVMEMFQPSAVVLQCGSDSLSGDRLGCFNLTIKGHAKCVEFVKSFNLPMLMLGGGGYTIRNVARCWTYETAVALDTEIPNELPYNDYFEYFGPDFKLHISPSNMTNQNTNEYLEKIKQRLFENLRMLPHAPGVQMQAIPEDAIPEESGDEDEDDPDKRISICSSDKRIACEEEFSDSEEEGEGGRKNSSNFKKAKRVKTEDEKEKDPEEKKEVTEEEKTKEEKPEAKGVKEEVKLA

Row | Compound | IC50 (Histone deacetylase 1) | IC50 [1] | IC50 (Histone deacetylase 2)
1 | N[C@H](Cc1cccc(Cl)c1)C(=O)N1CCN(C(=O)c2cc(F)ccc2F)CC1 | > 30 µM | > 30 µM | > 30 µM
2 | N[C@H](Cc1ccc(Cl)cc1Cl)C(=O)N1Cc2ccccc2C1 | – | > 30 µM | 3.9 µM
